From patent publication US6344456B1, “Piperazinone derivatives and their uses” (Laboratoire L. Lafon, priority 1998, dated 2002)
Counter-ions that a name gives are not always drawn. Blank lines part the entries; values can stand above or below the compound they belong to.

How the values were obtained:
Guinea Pig Platelets = assay: In vitro inhibition of collagen-induced platelet aggregation, guinea pig platelet-rich plasma; format: cell-based; details: guinea pig PRP, collagen 1 μg/ml, 3 minutes of contact at 37° C.
Method: (§1) A study of the inhibitory activity of the compounds of formula I on platelet aggregation was carried out in vitro, i.e. by direct contact of solutions of variable concentrations of the compounds with platelets freshly separated from a sample of whole blood, taken under standardized conditions, from laboratory animals (guinea pigs) and from healthy human subjects who have not received any substances or drugs that might interfere with blood clotting. The anti-platelet-aggregating activity was also studied ex vivo/vitro, i.e. after administration of the substances claimed in guinea pigs to measure the intensity and duration of the anti-aggregating action induced by the fraction of the test product absorbed and circulating in the blood.
1.1. Studies on Guinea Pig Platelets
Blood is taken by intracardiac puncture from male Dunkin-Hartley guinea pigs (weighing about 330 g), at a rate of 4.5 ml per 0.5 ml of trisodium citrate (concentration of the aqueous solution: 1.55%) in order to prevent all trace of clotting. The platelet-rich plasma (PRP) is obtained by centrifuging the tubes of whole blood for 15 minutes at 150 g.
The PRPs are collected as. “pools”. The platelets contained in these pools are counted using a Coulter ZM haematology automatic device: if necessary, a dilution is carried out in order for the platelet concentration in the plasma to be between 200,000 and 400,000 platelets/mm^3. Simultaneously, other samples of these pools serve to prepare the platelet-poor plasma (PPP) by centrifugation at 1,500 g for 15 minutes.
The kinetic study of the platelet aggregation is carried out by adding a collagen solution (1 μg/ml) to a volume of PRP, using a Chrono-log Corporation aggregometer (490-D1 or 560 VS) which uses an optical detection of the appearance of the thrombus.
The measurements of the aggregation inhibition are carried out after 3 minutes of contact at 37° C. with agitation.

[1] = test system: platelet aggregation induced by collagen; assay: Ex vivo/vitro anti-platelet-aggregating activity in guinea pigs after gastric administration; set-up: species or system guinea pig; details: for % of g.r. inhibition guinea pig ex vivo d = 150 mg/kg −1 h: administered 1 h before blood is taken; for % of g.r. inhibition guinea pig ex vivo d = 150 mg/kg −2 h: administered 2 h before blood is taken; for anti-aggregating action ex-vivo in guinea pigs, oral dose 10 mg/kg, 1h: administered 1h before the aggregation test
Method: as §1
2. ex vivo/vitro Pharmacological Study in Guinea Pigs
Evaluation of the anti-platelet-aggregating activity of the compounds is carried out in the same guinea pigs as those mentioned above (Dunkin-Hartley strain). The administration of each product in a range of doses from 150 mg/kg to 10 mg/kg and of each vehicle (5 ml/kg) is carried out via the gastric route (g.r.) 1h or 2h or 4h or 6h or 8h or 12h before blood is taken from the guinea pigs fasted the day before. The allocation of the treatments to the animals is random.
The blood is taken and then treated under the same conditions as those described above for the in vitro studies.
The results of the inhibition of the platelet aggregation obtained for each test concentration make it possible to calculate the IC50 concentration of each test product and the kinetics of the inhibitory effect and its duration of action.

[2] = Cavia porcellus, Platelet, 0.05 h

IC50 (Guinea Pig Platelets): 100 µM
Compound: Ethyl 3-{[2-(4-{4-[amino(hydroxyimino)methyl]phenyl}-2-oxopiperazino)acetyl]amino}-3-(pyridyl)propanoate [Example 5]
% of g.r. inhibition guinea pig ex vivo d = 150 mg/kg −1 h [1]: −72%
% of g.r. inhibition guinea pig ex vivo d = 150 mg/kg −2 h [1]: −75%

Compound: CCOC(=O)CC(CCc1ccccc1)NC(=O)CN1CCN(c2ccc(C(N)=NO)cc2)CC1=O (stereo not shown) [Example 7, Ethyl 3-{[2-(4-{4-[amino(hydroxyimino)methyl]phenyl}-2-oxopiperazino)acetyl]amino}-5-phenylpentanoate]
anti-aggregating action ex-vivo in guinea pigs, oral dose 10 mg/kg, 1h ([1]; 10 mg/kg): 72%

IC50 (Guinea Pig Platelets; [2]): 0.65 µM
Compound: CCOC(=O)CC(CCc1ccccc1)NC(=O)CN1CCN(c2ccc(C(=N)N3CCOCC3)cc2)CC1=O (stereo not shown) [Example 33, Ethyl 3-{[2-{4-{4-[imino(morpholino)methyl]phenyl}-2-oxopiperazino)acetyl]amino)-5-phenylpentanoate]

IC50 (Guinea Pig Platelets; [2]): 4.6 µM
Compound: CCOC(=O)CC(CC(C)C)NC(=O)CN1CCN(c2ccc(C(=N)N)cc2)CC1=O (stereo not shown) [Example 24, Ethyl 3-{[2-(4-{4-[amino(imino)methyl]phenyl}-2-oxopiperazino)acetyl]amino}-5-methylhexanoate acetate]

IC50 (Guinea Pig Platelets; [2]): 2.4 µM
Compound: CCOC(=O)CC(CCc1ccccc1)NC(=O)CN1CCN(c2ccc(C(=N)N3CCCCC3)cc2)CC1=O (stereo not shown) [Example 32, Ethyl 3-{[2-(4-{4-[imino(piperidino)methyl]phenyl}-2-oxopiperazino)acetyl]amino}-5-phenylpentanoate]

IC50 (Guinea Pig Platelets; [2]): 46 µM
Compound: CCOC(=O)CC(NC(=O)CN1CCN(c2ccc(C(=N)N)cc2)CC1=O)C1CCCCC1 (stereo not shown) [Example 23, Ethyl 3-{[2-(4-{4-[amino(imino)methyl]phenyl}-2-oxopiperazino)acetyl]amino}-3-cyclohexylpropanoate acetate]

IC50 (Guinea Pig Platelets; [2]): 440 µM
Compound: CCOC(=O)CC(NC(=O)CN1CCN(c2ccc(C(=N)N)cc2)CC1=O)C(C)(C)C (stereo not shown) [Example 25, Ethyl 3-{[2-(4-{4-[amino(imino)methyl]phenyl}-2-oxopiperazino)acetyl]amino}-4,4-dimethylpentanoate acetate]

IC50 (Guinea Pig Platelets; [2]): 38 µM
Compound: CC(=O)O.CCOC(=O)CCNC(=O)CN1CCN(c2ccc(C(=N)N)cc2)C(=O)C1 [Example 27, Ethyl 3-{[2-(4-{4-[amino(imino)methyl]phenyl}-3-oxopiperazino)acetyl]amino}propanoate acetate]
% of g.r. inhibition guinea pig ex vivo d = 150 mg/kg −1 h [1]: −8%
% of g.r. inhibition guinea pig ex vivo d = 150 mg/kg −2 h [1]: −9%

IC50 (Guinea Pig Platelets; [2]): 0.47 µM
Compound: CCOC(=O)CC(NC(=O)CN1CCN(c2ccc(C(=N)N3CCOCC3)cc2)CC1=O)c1ccc2c(c1)OCO2 (stereo not shown) [Example 35, Ethyl 3-(1,3-benzodioxol-5-yl)-3-{[2-(4-{4-[imino-(morpholino)methyl]phenyl}-2-oxopiperazino)acetyl]-amino}propanoate hydrochloride]

IC50 (Guinea Pig Platelets; [2]): 0.99 µM
Compound: CCOC(=O)CC(NC(=O)CN1CCN(c2ccc(C(=N)N3CCCCC3)cc2)CC1=O)c1ccc2c(c1)OCO2 (stereo not shown) [Example 34, Ethyl 3-(1,3-benzodioxol-5-yl)-3-{[2-(4-{4-[imino(piperidino)methyl]phenyl}-2-oxopiperazino)-acetyl]amino}propanoate hydrochloride]

IC50 (Guinea Pig Platelets; [2]): 4.5 µM
Compound: CCOC(=O)CC(NC(=O)CN1CCN(c2ccc(C(=N)N)cc2)CC1=O)C(C)C (stereo not shown) [Example 26, Ethyl 3-{[2-(4-{4-[amino(imino)methyl]phenyl}-2-oxopiperazino)acetyl]amino}-4-methylpentanoate acetate]

Compound: CCOC(=O)CC(NC(=O)CN1CCN(c2ccc(C(N)=NO)cc2)CC1=O)c1ccc2c(c1)OCO2 (stereo not shown) [Example 3, Ethyl 3-{[2-(4-{4-[amino(hydroxyimino)methyl]phenyl}-2-oxopiperazino)acetyl]amino}-3-(1,3-benzodioxol-5-yl)propanoate]
anti-aggregating action ex-vivo in guinea pigs, oral dose 10 mg/kg, 1h ([1]; 10 mg/kg): 69%
anti-aggregating action ex-vivo in guinea pigs, oral dose 10 mg/kg, 2h ([1]; 10 mg/kg, administered 2h before the aggregation test): 72%
% of g.r. inhibition guinea pig ex vivo d = 150 mg/kg −1 h [1]: −72%
% of g.r. inhibition guinea pig ex vivo d = 150 mg/kg −2 h [1]: −69%
